Experimental data from PubChem BioAssay AID1963875 (Molecular Pharmacology Branch, DTP, NCI, 2024).
pIC50: −log10 of the molar value. Where “and” joins values, the source holds several entries; their conditions need not be identical. Equal values may be shown once.

System: KRAS-mutant PDC complex spheroid viability
Experiment: Anticancer human tumor 186277-243-T-J2-PDC patient-derived colon adenocarcinoma cell line growth inhibition [KRAS2]
Settings: for pIC50: curve of first compound; for viability, T/C: stronger effect = lower value
Source text: Multicellular complex tumor spheroid response to RAS pathway inhibitors in combination with a targeted agents in patient-derived cell lines with oncogenic KRAS variants from multiple cancer types
A high-throughput screen of multi-cell type tumor spheroids was designed to identify active combinations of targeted small molecules and KRAS pathway inhibitors. Complex spheroids include a stromal component modeled by human endothelial cells (HUVEC) and fibroblasts modeled by human mesenchymal stem cells (MSCs). The concentration ranges selected for each drug and investigational agent were based upon clinically achievable concentrations if the clinical Cmax of the agent was known.
Compounds. The drugs and investigational agents: BI-3406 (NSC825286), BAY-293 (NSC824723), batoprotafib (TNO155; NSC825523), sotorasib (AMG 510; NSC818433), MRTX1257 (NSC819558), elimusertib (BAY 1895344; NSC800525), molibresib (GSK525762; NSC774829), temuterkib (LY3214996; NSC803410), venetoclax (NSC766270), alisertib (NSC759677), olaparib (NSC753686), talazoparib (NSC767125), erdafitinib (NSC781556), ipatasertib (NSC767898), cabozantinib (NSC761068), nintedanib (NSC756659), abemaciclib (NSC768073), docetaxel (NSC628503), trametinib (NSC758246), and sapanisertib (NSC764658) were obtained from the National Cancer Institute (NCI) Developmental Therapeutics Program Chemical Repository. The FDA-approved anticancer drug set is available from the Developmental Therapeutics Program. […] The stock solutions were prepared in dimethyl sulfoxide (DMSO, Sigma-Aldrich, St. Louis, MO, cat. D2650) at 800-fold the tested concentration and stored at -70 degrees C prior to their use. All drugs and investigational agents were tested over a range starting from a high concentration at or near the clinical Cmax and decreasing in half-log increments. If the clinical Cmax for an agent had not been determined, the highest concentration tested was 10 microM.
Cell Culture. All cells were maintained in an incubator at 37 degrees C and 5% CO2 with 95% humidity. The PDC lines were cultured according to standard operating procedures established by the NCI PDMR (https://pdmr.cancer.gov/sops/default.htm). Briefly, all PDCs were thawed and cultured in Matrigel-coated flasks prepared with a working solution of 1X Ham's F-12 nutrient mix, without supplementation (Invitrogen, Waltham, MA, cat. 11765054), 100 U/mL penicillin-streptomycin (Invitrogen, cat. 15140122), and 2.5% Matrigel (Corning Inc., Corning, NY, cat. 354248) for the first three passages. All PDCs were cultured in complete DMEM/F-12 media containing advanced DMEM/F-12 (Invitrogen, cat. 12634028), 4.9% defined fetal bovine serum, heat inactivated (HyClone Laboratories Inc., Logan, UT, cat. SH30070.03HI), 389 ng/mL hydrocortisone (Sigma-Aldrich, cat. H4001), 9.7 ng/mL human EGF recombinant protein (Invitrogen, cat. PHG0313), 23.4 microg/mL adenine (Sigma-Aldrich, cat. A2786), 97.3 U/mL penicillin-streptomycin (Invitrogen, cat. 15140122), 1.9 mM L-glutamine (Invitrogen, cat. 25030081), and 9.7 microM Y-27632 dihydrochloride (Tocris Bioscience, Bristol, United Kingdom, cat. 1254). The PDCs were cultured in complete DMEM/F12 media without 9.7 microM Y-27632 dihydrochloride for at least two passages prior to the screen. The established cell line HOP-62 was cultured in RPMI 1640 medium, HEPES (Invitrogen, cat. 22400105) with 10% defined fetal bovine serum (HyClone Laboratories Inc., cat. SH30070.03) and 2 mM L-glutamine (Invitrogen, cat. 25030081). The pooled donor HUVEC were cultured in endothelial cell growth medium 2 (PromoCell, Heidelberg, Germany, cat. C-22011) and the hMSC were cultured in mesenchymal stem cell growth medium 2 (PromoCell, cat. C-28009). For all experiments, HUVEC and hMSC were used at passages </=5, while the malignant cell lines were used at passages </=15. […]

[1] = second compound 0.1 µM, first compound 0.01 µM
[2] = second compound 0.1 µM, first compound 0.0316 µM
[3] = second compound 0.1 µM, first compound 0.1 µM
[4] = second compound 0.1 µM, first compound 0.316 µM
[5] = second compound 0.1 µM, first compound 1 µM
[6] = second compound 0.1 µM, first compound 3.16 µM
[7] = second compound 0.316 µM, first compound 0.01 µM
[8] = second compound 0.316 µM, first compound 0.0316 µM
[9] = second compound 0.316 µM, first compound 0.1 µM
[10] = second compound 0.316 µM, first compound 0.316 µM
[11] = second compound 0.316 µM, first compound 1 µM
[12] = second compound 0.316 µM, first compound 3.16 µM
[13] = second compound 1 µM, first compound 0.01 µM
[14] = second compound 1 µM, first compound 0.0316 µM
[15] = second compound 1 µM, first compound 0.1 µM
[16] = second compound 1 µM, first compound 0.316 µM
[17] = second compound 1 µM, first compound 1 µM
[18] = second compound 1 µM, first compound 3.16 µM
[19] = second compound 3.16 µM, first compound 0.01 µM
[20] = second compound 3.16 µM, first compound 0.0316 µM
[21] = second compound 3.16 µM, first compound 0.1 µM
[22] = second compound 3.16 µM, first compound 0.316 µM
[23] = second compound 3.16 µM, first compound 1 µM
[24] = second compound 3.16 µM, first compound 3.16 µM
[25] = second compound 10 µM, first compound 0.01 µM
[26] = second compound 10 µM, first compound 0.0316 µM
[27] = second compound 10 µM, first compound 0.1 µM
[28] = second compound 10 µM, first compound 0.316 µM
[29] = second compound 10 µM, first compound 1 µM
[30] = second compound 10 µM, first compound 3.16 µM
[31] = second compound 0.1 µM, first compound 10 µM
[32] = second compound 0.316 µM, first compound 10 µM
[33] = second compound 1 µM, first compound 10 µM
[34] = second compound 3.16 µM, first compound 10 µM
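Wherever viability, T/C is given: viability read after seven days of compound exposure; 100% = DMSO vehicle-treated spheroids so lower means less viable.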

SMILES | pIC50 (second compound 0.1 µM) | pIC50 (second compound 0.316 µM) | pIC50 (second compound 1 µM) | pIC50 (second compound 3.16 µM) | viability, T/C [2] | viability, T/C [3] | viability, T/C [4] | viability, T/C [5] | viability, T/C [6] | viability, T/C [8] | viability, T/C [9] | viability, T/C [10] | viability, T/C [11] | viability, T/C [12] | viability, T/C [14] | viability, T/C [15] | viability, T/C [16] | viability, T/C [17] | viability, T/C [18] | viability, T/C [20] | other results
CC1COCCN1c1cc(-c2ccnn2C)c2ccnc(-c3ccn[nH]3)c2n1 (stereo unspecified) + CNCc1ccccc1-c1csc(C(C)Nc2nc(C)nc3cc(OC)c(OC)cc23)c1 | 7.70 | 7.67 | 7.71 | > 8.00 | 18.4% | 5.46% | 3.99% | 3.43% | 4.08% | 24.2% | 8.14% | 3.97% | 3.29% | 4.28% | 15.5% | 4.99% | 3.97% | 3.82% | 4.51% | 1.99% | pIC50 (second compound 10 µM): > 8.00; viability, T/C [1]: 97.7%; viability, T/C [7]: 98.4%; viability, T/C [13]: 98.9%; viability, T/C [19]: 23.7%; viability, T/C [21]: 0.3%; viability, T/C [22]: 0.17%; viability, T/C [23]: 0.22%; viability, T/C [24]: 0.31%; viability, T/C [25]: 0.13%; viability, T/C [26]: 0.1%; viability, T/C [27]: 0.09%; viability, T/C [28]: 0.09%; viability, T/C [29]: 0.1%; viability, T/C [30]: 0.15%
CC(=O)OC12COC1CC(O)C1(C)C(=O)C(O)C3=C(C)C(OC(=O)C(O)C(NC(=O)OC(C)(C)C)c4ccccc4)CC(O)(C(OC(=O)c4ccccc4)C21)C3(C)C (stereo unspecified) + C=CC(=O)N1CCN(c2nc(=O)n(-c3c(C)ccnc3C(C)C)c3nc(-c4c(O)cccc4F)c(F)cc23)C(C)C1 | > 8.00 | > 8.00 | > 8.00 | > 8.00 | 4.61% | 3.18% | 3.25% | 3.42% | 3.34% | 4% | 3.67% | 3.33% | 3.62% | 4% | 4.03% | 3.81% | 3.93% | 4% | 4.32% | 4.69% | pIC50 (second compound 10 µM): > 8.00; viability, T/C [1]: 6.27%; viability, T/C [7]: 6.24%; viability, T/C [13]: 6.82%; viability, T/C [19]: 6.24%; viability, T/C [21]: 3.98%; viability, T/C [22]: 4.34%; viability, T/C [23]: 4.7%; viability, T/C [24]: 4.34%; viability, T/C [25]: 6.5%; viability, T/C [26]: 5.4%; viability, T/C [27]: 5.36%; viability, T/C [28]: 5.19%; viability, T/C [29]: 5.08%; viability, T/C [30]: 4.88%
Cn1nccc1Nc1nccc(-c2cc3c(s2)C(C)(C)N(CCN2CCOCC2)C3=O)n1 + C=CC(=O)N1CCN(c2nc(OCC3CCCN3C)nc3c2CCN(c2cccc4cccc(C)c24)C3)CC1CC#N | 6.34 | 6.46 | 6.41 | > 7.50 | 105% | 104% | 70.2% | 5.12% | 9.32% | 101% | 97.1% | 51.8% | 15.8% | 5.05% | 91% | 88.6% | 59.1% | 8.02% | 4.02% | 10.1% | pIC50 (second compound 0.0316 µM): 6.39; viability, T/C (second compound 0.0316 µM, first compound 0.0316 µM): 111%; viability, T/C (second compound 0.0316 µM, first compound 0.1 µM): 96.7%; viability, T/C (second compound 0.0316 µM, first compound 0.316 µM): 63%; viability, T/C (second compound 0.0316 µM, first compound 1 µM): 5.23%; viability, T/C (second compound 0.0316 µM, first compound 3.16 µM): 6.25%; viability, T/C (second compound 0.0316 µM, first compound 10 µM): 6.65%; viability, T/C [31]: 6.37%; viability, T/C [32]: 7.23%; viability, T/C [33]: 4.26%; viability, T/C [21]: 1.3%; viability, T/C [22]: 0.45%; viability, T/C [23]: 0.51%; viability, T/C [24]: 0.15%; viability, T/C [34]: 0.16%
CC(C)NCC(C(=O)N1CCN(c2ncnc3c2C(C)CC3O)CC1)c1ccc(Cl)cc1 (stereo unspecified) | – | – | – | – | – | – | – | – | – | – | – | – | – | – | – | – | – | – | – | – | viability, T/C (compound 0.0316 µM): 89.6% [middle of 5 runs]; viability, T/C (compound 0.1 µM): 89.8% [middle of 5 runs]; viability, T/C (compound 0.316 µM): 73% [middle of 5 runs]; viability, T/C (compound 1 µM): 39.9% and 40.4% (2×) and 33.2%; viability, T/C (compound 10 µM): 12.9% [middle of 5 runs]; IC50 (curve of compound): 746 nM [middle of 5 runs]
COc1cc2nccc(Oc3ccc(NC(=O)C4(C(=O)Nc5ccc(F)cc5)CC4)cc3)c2cc1OC + CNCc1ccccc1-c1csc(C(C)Nc2nc(C)nc3cc(OC)c(OC)cc23)c1 | 5.73 | 5.72 | 5.77 | > 7.50 | 112% | 106% | 115% | 93.3% | 11.4% | 113% | 104% | 113% | 100% | 10.8% | 102% | 112% | 121% | 85.7% | 6.86% | 45.5% | pIC50 (second compound 10 µM): > 7.50; viability, T/C [31]: 12.4%; viability, T/C [32]: 4.47%; viability, T/C [33]: 2.01%; viability, T/C [21]: 48%; viability, T/C [22]: 26.6%; viability, T/C [23]: 0.18%; viability, T/C [24]: 0.06%; viability, T/C [34]: 0.12%; viability, T/C [26]: 0.16%; viability, T/C [27]: 0.15%; viability, T/C [28]: 0.13%; viability, T/C [29]: 0.13%; viability, T/C [30]: 0.13%; viability, T/C (second compound 10 µM, first compound 10 µM): 0.21%
